Results reported in PMC12281424, “A Rac-specific competitive inhibitor of guanine nucleotide binding reduces metastasis in triple-negative breast cancer” (Cell Reports Medicine, 2025).

Key:
SAPK2a(T106M)(h) = SAPK2a(T106M)(h) (Homo sapiens, UniProt Q16539, T106M); assay: Kinase Profiler; format: biochemical
Procedure: (§1) The kinase profiler was performed by the company Eurofins (Discovery, Panlab and Cerep).

MARK4(h) = MARK4(h) (Homo sapiens, UniProt Q96L34); assay: Kinase Profiler; format: biochemical
Procedure: as §1

PPARγ = PPARγ (Homo sapiens, UniProt P37231); assay: Safety screen; format: binding
Procedure: (§2) Blood cell counts, kinase profiler, safety screen, bacterial cytotoxicity, Ames, micronucleus assays were performed by the company Eurofins (France). The kinase profiler was performed by the company Eurofins (Discovery, Panlab and Cerep).

EphB2(h) = EphB2(h) (Homo sapiens, UniProt P29323); assay: Kinase Profiler; format: biochemical
Procedure: as §2

[1] = tested on: Calcium Channel L-Type, Dihydropyridine; assay: Safety screen; format: binding, rat
EphB1(h) = EphB1(h) (Homo sapiens, UniProt P54762); assay: Kinase Profiler; format: biochemical
Procedure: as §2

[2] = target: Transporter, Serotonin (5- Hydroxytryptamine) (SERT) (Homo sapiens, UniProt P31645); assay: Safety screen; format: binding
Procedure: (§3) Blood cell counts, kinase profiler, safety screen, bacterial cytotoxicity, Ames, micronucleus assays were performed by the company Eurofins (France).

PI3K (p110d/p85a)(h) = PI3K (p110d/p85a)(h) (Homo sapiens, UniProt O00329); assay: Kinase Profiler; format: biochemical
Procedure: as §2

A-Raf(h) = A-Raf(h) (Homo sapiens, UniProt P10398); assay: Kinase Profiler; format: biochemical
Procedure: as §2

BIKe(h) = BIKe(h) (Homo sapiens, UniProt Q9NSY1); assay: Kinase Profiler; format: biochemical
Procedure: as §2

FGFR1(h) = FGFR1(h) (Homo sapiens, UniProt P11362); assay: Kinase Profiler; format: biochemical
Procedure: as §1

FGFR3(h) = FGFR3(h) (Homo sapiens, UniProt P22607); assay: Kinase Profiler; format: biochemical
Procedure: as §1

[3] = target: PI3K (p110a(E542K)/p85a)(m) (Mus musculus, UniProt P42337, E542K); assay: Kinase Profiler; format: biochemical
Procedure: as §1

GCK(h) = GCK(h) (Homo sapiens, UniProt Q12851); assay: Kinase Profiler; format: biochemical
Procedure: as §1

TAO1(h) = TAO1(h) (Homo sapiens, UniProt Q7L7X3); assay: Kinase Profiler; format: biochemical
Procedure: as §2

JAK2(h) = JAK2(h) (Homo sapiens, UniProt O60674); assay: Kinase Profiler; format: biochemical
Procedure: as §1

[4] = In vivo toxicity, chronic daily intraperitoneal injection; set-up: species or system mouse; settings: 1, 10 and 25 mg/kg daily i.p. for 1 month
Procedure: In order to assess the anti-tumor properties of A41 in vivo, we first would like to make sure of the safety and the absence of major off-target effects of A41. […] In vivo safety has been addressed by monitoring various biological parameters in mice chronically receiving daily intraperitoneal A41 injection (1, 10, and 25 mg/kg) for 1 month. […] We then analyzed pharmacokinetics and tissue distribution of A41 following intraperitoneal injection of A41 (25 mg/kg). A41 rapidly reached its peak plasma concentration (∼15 min, 15.056 ± 0.5 μg/mL), which then declined over 2–3 h (Figure S7). A41 was detected in the liver, heart, and lungs.
Supplementary Fig. 6: In vivo A41 toxicity. (a) Effect of chronic administration of A41 at the indicated concentrations by daily intraperitoneal injections in mice on weight gain glycemia. (b) and (c), Glycemia (b) and plasmatic concentration of transaminases (ALAT and ASAT), albumin, urea, creatinine and total protein in mice after of 1 month of chronic administration of A41 at indicated concentrations (c). N=6-7

[5] = target: Serotonin (5-Hydroxytryptamine) 5-HT3 (Homo sapiens, UniProt P46098); assay: Safety screen; format: binding
Procedure: as §3

Transporter, GABA = assay: Safety screen; format: binding, rat
Procedure: as §3

CK2α2(h) = CK2α2(h) (Homo sapiens, UniProt P19784); assay: Kinase Profiler; format: biochemical
Procedure: as §1

[6] = target: ATPase, Na+/K+, Heart, Pig (Sus scrofa, UniProt P05024); assay: Safety screen; format: biochemical
Procedure: as §2

Plk4(h) = Plk4(h) (Homo sapiens, UniProt O00444); assay: Kinase Profiler; format: biochemical
Procedure: as §2

JAK3(h) = JAK3(h) (Homo sapiens, UniProt P52333); assay: Kinase Profiler; format: biochemical
Procedure: as §1

TTBK1(h) = TTBK1(h) (Homo sapiens, UniProt Q5TCY1); assay: Kinase Profiler; format: biochemical
Procedure: as §1

PAK6(h) = PAK6(h) (Homo sapiens, UniProt Q9NQU5); assay: Kinase Profiler; format: biochemical
Procedure: as §1

MINK(h) = MINK(h) (Homo sapiens, UniProt Q8N4C8); assay: Kinase Profiler; format: biochemical
Procedure: as §1

Src(1-530)(h) = Src(1-530)(h) (Homo sapiens, UniProt P12931); assay: Kinase Profiler; format: biochemical
Procedure: as §1

Fes(h) = Fes(h) (Homo sapiens, UniProt P07332); assay: Kinase Profiler; format: biochemical
Procedure: as §1

ARK5(h) = ARK5(h) (Homo sapiens, UniProt O60285); assay: Kinase Profiler; format: biochemical
Procedure: as §2

mTOR(h) = mTOR(h) (Homo sapiens, UniProt P42345); assay: Kinase Profiler; format: biochemical
Procedure: as §1

Wee1(h) = Wee1(h) (Homo sapiens, UniProt P30291); assay: Kinase Profiler; format: biochemical
Procedure: as §1

PIP5K1g(h) = PIP5K1g(h) (Homo sapiens, UniProt O60331); assay: Kinase Profiler; format: biochemical
Procedure: as §2

Cyclooxygenase COX-2 = Cyclooxygenase COX-2 (Homo sapiens, UniProt P35354); assay: Safety screen; format: biochemical
Procedure: as §2

LRRK2(h) = LRRK2(h) (Homo sapiens, UniProt Q5S007); assay: Kinase Profiler; format: biochemical
Procedure: as §1

MEKK2(h) = MEKK2(h) (Homo sapiens, UniProt Q9Y2U5); assay: Kinase Profiler; format: biochemical
Procedure: as §1

Sequence of FGFR3(h) (P22607 23-806): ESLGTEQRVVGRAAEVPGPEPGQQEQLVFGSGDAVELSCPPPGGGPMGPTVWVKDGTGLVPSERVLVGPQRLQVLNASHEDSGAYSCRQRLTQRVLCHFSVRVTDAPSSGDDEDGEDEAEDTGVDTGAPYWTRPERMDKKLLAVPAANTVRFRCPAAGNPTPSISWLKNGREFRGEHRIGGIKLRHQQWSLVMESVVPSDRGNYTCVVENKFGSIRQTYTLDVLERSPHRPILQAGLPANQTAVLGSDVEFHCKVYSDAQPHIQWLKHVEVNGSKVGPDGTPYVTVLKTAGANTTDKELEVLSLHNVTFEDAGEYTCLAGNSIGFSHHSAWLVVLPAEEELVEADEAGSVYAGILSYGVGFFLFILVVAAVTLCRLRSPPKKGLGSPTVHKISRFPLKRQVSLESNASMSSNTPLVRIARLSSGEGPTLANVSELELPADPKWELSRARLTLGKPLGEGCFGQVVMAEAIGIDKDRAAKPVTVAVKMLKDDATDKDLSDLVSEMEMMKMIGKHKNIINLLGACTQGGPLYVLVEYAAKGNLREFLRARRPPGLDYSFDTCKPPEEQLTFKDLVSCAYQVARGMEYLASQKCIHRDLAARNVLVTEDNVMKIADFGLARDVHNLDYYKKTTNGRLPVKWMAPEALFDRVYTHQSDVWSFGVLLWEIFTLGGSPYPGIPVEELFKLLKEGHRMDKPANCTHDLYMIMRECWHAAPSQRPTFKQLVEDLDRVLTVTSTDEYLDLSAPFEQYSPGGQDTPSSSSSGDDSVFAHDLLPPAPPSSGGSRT
Sequence of Serotonin (5-Hydroxytryptamine) 5-HT3 (P46098 24-478): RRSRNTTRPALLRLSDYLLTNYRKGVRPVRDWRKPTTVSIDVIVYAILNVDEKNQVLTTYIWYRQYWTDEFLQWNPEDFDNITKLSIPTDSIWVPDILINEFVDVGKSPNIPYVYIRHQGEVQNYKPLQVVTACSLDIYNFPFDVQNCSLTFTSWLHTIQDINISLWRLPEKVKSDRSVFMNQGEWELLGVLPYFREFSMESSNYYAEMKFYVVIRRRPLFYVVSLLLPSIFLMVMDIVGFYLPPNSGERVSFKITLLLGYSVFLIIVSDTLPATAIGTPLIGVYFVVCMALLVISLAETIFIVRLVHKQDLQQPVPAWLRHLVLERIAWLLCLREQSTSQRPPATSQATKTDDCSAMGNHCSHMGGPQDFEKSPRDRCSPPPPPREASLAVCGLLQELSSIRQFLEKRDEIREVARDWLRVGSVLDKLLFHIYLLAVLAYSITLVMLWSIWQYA
Sequence of JAK2(h) (O60674 whole entry): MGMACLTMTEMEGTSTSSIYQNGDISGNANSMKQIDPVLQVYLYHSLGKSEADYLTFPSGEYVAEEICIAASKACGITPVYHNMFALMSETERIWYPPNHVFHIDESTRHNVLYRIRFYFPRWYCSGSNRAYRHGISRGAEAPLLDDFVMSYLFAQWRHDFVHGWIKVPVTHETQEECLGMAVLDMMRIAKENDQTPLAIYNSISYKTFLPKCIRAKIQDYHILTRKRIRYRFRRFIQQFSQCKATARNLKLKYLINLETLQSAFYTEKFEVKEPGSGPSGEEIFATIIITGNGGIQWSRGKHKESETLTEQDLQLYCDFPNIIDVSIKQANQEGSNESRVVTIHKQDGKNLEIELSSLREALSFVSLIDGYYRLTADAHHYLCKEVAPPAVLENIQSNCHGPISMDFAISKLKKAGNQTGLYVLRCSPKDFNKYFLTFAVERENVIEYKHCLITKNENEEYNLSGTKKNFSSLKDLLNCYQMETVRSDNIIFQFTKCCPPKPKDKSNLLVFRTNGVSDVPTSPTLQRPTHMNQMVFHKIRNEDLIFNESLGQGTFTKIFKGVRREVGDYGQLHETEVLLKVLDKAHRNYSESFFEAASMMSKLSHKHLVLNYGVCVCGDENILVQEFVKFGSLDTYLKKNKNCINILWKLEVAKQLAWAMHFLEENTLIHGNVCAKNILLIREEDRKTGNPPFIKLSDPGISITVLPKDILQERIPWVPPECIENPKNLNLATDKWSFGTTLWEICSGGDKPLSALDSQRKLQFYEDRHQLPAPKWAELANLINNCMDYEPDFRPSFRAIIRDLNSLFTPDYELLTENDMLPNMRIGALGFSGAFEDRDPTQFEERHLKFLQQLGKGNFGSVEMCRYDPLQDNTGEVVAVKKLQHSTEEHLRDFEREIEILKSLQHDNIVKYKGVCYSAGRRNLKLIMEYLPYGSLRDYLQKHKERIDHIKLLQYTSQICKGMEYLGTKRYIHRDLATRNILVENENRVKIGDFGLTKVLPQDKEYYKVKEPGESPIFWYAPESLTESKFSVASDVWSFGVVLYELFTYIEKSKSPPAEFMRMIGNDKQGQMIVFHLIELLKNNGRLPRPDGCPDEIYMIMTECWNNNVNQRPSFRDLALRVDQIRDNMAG
Sequence of Src(1-530)(h) (P12931 1-530 limits assumed): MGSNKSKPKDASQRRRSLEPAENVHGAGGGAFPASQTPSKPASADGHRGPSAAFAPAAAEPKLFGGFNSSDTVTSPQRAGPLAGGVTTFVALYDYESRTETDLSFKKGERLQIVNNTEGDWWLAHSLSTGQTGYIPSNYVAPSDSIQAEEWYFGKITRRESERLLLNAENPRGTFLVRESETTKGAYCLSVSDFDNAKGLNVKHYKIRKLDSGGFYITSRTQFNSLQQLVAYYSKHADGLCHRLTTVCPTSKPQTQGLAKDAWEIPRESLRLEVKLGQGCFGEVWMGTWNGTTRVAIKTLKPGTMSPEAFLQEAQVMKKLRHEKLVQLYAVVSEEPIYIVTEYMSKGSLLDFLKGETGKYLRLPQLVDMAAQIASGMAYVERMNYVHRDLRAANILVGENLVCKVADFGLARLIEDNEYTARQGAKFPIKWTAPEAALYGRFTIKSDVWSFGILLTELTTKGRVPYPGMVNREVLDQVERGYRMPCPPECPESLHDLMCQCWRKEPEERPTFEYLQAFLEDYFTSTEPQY
Sequence of Transporter, Serotonin (5- Hydroxytryptamine) (SERT) (P31645 whole entry): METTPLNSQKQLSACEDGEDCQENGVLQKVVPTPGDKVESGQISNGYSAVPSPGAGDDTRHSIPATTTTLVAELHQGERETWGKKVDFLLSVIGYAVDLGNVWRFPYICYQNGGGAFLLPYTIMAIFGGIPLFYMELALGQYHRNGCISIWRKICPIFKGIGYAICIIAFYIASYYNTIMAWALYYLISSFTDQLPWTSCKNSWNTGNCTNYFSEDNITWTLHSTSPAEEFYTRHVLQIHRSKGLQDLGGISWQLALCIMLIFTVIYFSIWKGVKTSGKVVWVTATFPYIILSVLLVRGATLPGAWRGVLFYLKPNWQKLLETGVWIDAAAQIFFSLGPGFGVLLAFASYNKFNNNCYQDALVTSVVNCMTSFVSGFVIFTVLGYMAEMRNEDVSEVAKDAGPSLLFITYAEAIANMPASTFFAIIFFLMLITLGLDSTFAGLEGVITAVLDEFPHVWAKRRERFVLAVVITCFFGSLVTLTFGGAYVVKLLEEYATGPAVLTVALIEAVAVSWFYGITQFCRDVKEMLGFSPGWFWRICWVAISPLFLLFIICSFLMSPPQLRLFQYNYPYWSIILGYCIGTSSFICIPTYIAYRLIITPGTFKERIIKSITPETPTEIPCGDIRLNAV
Sequence of A-Raf(h) (P10398 whole entry): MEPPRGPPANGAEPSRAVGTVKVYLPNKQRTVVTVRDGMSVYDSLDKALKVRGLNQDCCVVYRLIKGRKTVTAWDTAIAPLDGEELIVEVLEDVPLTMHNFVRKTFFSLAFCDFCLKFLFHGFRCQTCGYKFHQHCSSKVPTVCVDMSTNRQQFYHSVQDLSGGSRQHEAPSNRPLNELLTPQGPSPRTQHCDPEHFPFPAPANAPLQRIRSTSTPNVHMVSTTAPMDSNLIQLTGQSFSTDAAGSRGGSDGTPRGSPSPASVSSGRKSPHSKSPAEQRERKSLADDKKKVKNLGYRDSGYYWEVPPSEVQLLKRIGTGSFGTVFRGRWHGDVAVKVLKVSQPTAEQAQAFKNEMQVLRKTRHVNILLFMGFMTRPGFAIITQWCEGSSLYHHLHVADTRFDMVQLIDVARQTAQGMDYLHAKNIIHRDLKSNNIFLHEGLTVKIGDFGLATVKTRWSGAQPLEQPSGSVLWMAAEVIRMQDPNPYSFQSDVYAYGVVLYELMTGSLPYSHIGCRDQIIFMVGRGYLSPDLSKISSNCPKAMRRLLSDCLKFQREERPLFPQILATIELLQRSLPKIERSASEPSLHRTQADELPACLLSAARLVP
Sequence of CK2α2(h) (P19784 whole entry): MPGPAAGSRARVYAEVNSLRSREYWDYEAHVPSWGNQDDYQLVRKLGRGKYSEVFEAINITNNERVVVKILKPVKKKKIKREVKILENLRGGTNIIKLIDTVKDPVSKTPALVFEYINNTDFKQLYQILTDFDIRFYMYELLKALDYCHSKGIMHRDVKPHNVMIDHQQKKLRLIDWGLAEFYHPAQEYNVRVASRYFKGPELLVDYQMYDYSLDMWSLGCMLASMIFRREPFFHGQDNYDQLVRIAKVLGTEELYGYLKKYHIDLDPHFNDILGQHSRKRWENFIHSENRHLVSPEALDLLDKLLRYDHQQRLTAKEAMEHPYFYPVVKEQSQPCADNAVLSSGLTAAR
Sequence of PPARγ (P37231 whole entry): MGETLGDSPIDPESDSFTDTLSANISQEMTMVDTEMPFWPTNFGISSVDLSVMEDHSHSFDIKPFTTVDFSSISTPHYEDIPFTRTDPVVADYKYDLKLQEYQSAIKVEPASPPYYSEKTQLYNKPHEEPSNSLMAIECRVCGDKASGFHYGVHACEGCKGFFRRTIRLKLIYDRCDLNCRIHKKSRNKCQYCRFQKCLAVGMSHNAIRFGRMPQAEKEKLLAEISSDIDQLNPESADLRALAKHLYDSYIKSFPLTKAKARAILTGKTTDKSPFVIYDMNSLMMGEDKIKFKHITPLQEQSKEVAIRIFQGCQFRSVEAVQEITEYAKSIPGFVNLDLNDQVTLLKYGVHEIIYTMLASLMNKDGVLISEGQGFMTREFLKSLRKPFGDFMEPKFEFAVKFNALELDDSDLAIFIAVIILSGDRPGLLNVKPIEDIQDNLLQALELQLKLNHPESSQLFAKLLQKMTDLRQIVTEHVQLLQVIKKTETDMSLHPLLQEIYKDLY

Compound: COc1ccc(OC)c(NS(=O)(=O)c2ccc(NC(=O)CCSc3ccc(C)cc3)cc2)c1 [Compound A41]
- Activity(%) (SAPK2a(T106M)(h)): 98%
- Activity(%) (MARK4(h)): 105%
- % inh. (PPARγ): -7%
- Activity(%) (EphB2(h)): 97%
- % inh. [1]: 85%
- Activity(%) (EphB1(h)): 111%
- % inh. [2]: -3%
- Activity(%) (PI3K (p110d/p85a)(h)): 100%
- Activity(%) (A-Raf(h)): 85%
- Activity(%) (BIKe(h)): 112%
- Activity(%) (FGFR1(h)): 83%
- Activity(%) (FGFR3(h)): 89%
- Activity(%) [3]: 99%
- Activity(%) (GCK(h)): 114%
- Activity(%) (TAO1(h)): 118%
- Activity(%) (JAK2(h)): 114%
- biological parameters incl. weight [4]: None of the parameters measured, including the weight of the mice, was affected
- deaths [4]: No deaths
- visual inspection (suffering, behavior) [4]: no sign of suffering or abnormal behavior
- % inh. [5]: -2%
- % inh. (Transporter, GABA): -4%
- Activity(%) (CK2α2(h)): 109%
- % inh. [6]: -15%
- Activity(%) (Plk4(h)): 104%
- Activity(%) (JAK3(h)): 106%
- Activity(%) (TTBK1(h)): 103%
- Activity(%) (PAK6(h)): 99%
- Activity(%) (MINK(h)): 114%
- Activity(%) (Src(1-530)(h)): 105%
- Activity(%) (Fes(h)): 116%
- Activity(%) (ARK5(h)): 106%
- Activity(%) (mTOR(h)): 101%
- Activity(%) (Wee1(h)): 112%
- Activity(%) (PIP5K1g(h)): 104%
- % inh. (Cyclooxygenase COX-2): 11%
- Activity(%) (LRRK2(h)): 111%
- Activity(%) (MEKK2(h)): 102%
